Reference: US7741493B2, “Heterocyclic compounds as P2X7 ion channel blockers” (Aventis Pharmaceuticals Inc., priority 2003, dated 2010)
“And” between values parts separate entries of the source, which are not always exact repeats. Equal entries are not always repeated. Structures can show the parent of a compound that is named as a salt.

Each compound was assayed against T1, P2X7 (Homo sapiens, UniProt Q99572) (assay: YO-PRO-1 dye uptake assay in U373 cells stably expressing P2X7). Conditions: IC50 (nM), dye uptake through P2X7, U373 cells, 300 μM BzATP, 5 μM YO-PRO-1, test compounds 30 nM to 3 μM.
T1 sequence (Q99572 1-595): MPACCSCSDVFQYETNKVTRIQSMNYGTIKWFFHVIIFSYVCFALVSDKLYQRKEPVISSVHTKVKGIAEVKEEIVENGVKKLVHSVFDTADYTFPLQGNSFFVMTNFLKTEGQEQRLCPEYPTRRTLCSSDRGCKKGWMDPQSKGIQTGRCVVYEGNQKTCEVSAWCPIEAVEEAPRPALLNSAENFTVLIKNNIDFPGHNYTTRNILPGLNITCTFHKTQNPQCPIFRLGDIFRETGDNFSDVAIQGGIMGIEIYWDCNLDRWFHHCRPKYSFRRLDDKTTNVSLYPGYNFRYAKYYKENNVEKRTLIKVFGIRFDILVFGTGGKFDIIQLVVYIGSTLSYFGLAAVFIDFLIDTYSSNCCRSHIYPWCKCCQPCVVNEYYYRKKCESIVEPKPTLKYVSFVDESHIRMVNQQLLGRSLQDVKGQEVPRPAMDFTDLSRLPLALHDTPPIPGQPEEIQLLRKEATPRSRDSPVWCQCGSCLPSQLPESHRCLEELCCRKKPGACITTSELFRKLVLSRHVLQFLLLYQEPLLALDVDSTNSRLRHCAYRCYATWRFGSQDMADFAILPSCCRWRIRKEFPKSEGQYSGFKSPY
Format: cell-based
Design: The complete open reading frame of human P2X7 was amplified from Incyte clone 148057; expressed in transfected cells
Outline: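 U373 cells stably expressing human P2X7 preincubated 20 min at 37° C. with compound (30 nM to 3 μM) in Mg/Ca-free HBSS. YO-PRO-1 (5 μM final) and BzATP (300 μM final) then added for 1.5 h at 37° C.; dye-uptake fluorescence compared with compound-free control.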
Cc1ccccc1CC1=N[C@H](c2ccccc2)[C@H](c2ccccc2)N1 [cis-4,5-diphenyl-2-(2-methylbenzyl)-4,5-dihydro-1H-imidazole] was tested, and the IC50 was 321 nM.

Same assay, conditions: dye uptake through P2X7, U373 cells, 300 μM BzATP, 5 μM YO-PRO-1, test compounds 30 nM to 3 μM; read-out: IC50
In the case of Cc1ccccc1[C@H]1NC(NCc2cccc(F)c2)=N[C@H]1c1ccccc1C [[cis-4,5-bis-(2-Methylphenyl)-4,5-dihydro-1H-imidazol-2-yl]-(3-fluorobenzyl)amine hydrochloride], the IC50 is reported as 121 nM. With Cc1ccccc1[C@H]1NC(NCc2ccc(F)cc2)=N[C@H]1c1ccccc1C [[cis-4,5-bis-(2-Methylphenyl)-4,5-dihydro-1H-imidazol-2-yl]-(4-fluorobenzyl)amine hydrochloride] the IC50 was 139 nM. Cc1ccccc1[C@H]1NC(NCc2ccccc2)=N[C@H]1c1ccccc1C [[cis-4,5-bis-(2-Methylphenyl)-4,5-dihydro-1H-imidazol-2-yl]-benzylamine hydrochloride] gave an IC50 of 167 nM. Work on Fc1ccc(CNC2=N[C@@H](c3cccc(Cl)c3)[C@@H](c3cccc(Cl)c3)N2)cc1F [[cis-4,5-bis-(3-Chlorophenyl)-4,5-dihydro-1H-imidazol-2-yl]-(3,4-difluorobenzyl)-amine hydrochloride] yielded an IC50 of 247 nM. In the case of Fc1ccc(CNC2=N[C@@H](c3cccc(Cl)c3)[C@@H](c3cccc(Cl)c3)N2)cc1 [[cis-4,5-bis-(3-Chlorophenyl)-4,5-dihydro-1H-imidazol-2-yl]-(4-fluorobenzyl)amine hydrochloride], the IC50 is reported as 318 nM. With Clc1cccc([C@H]2NC(NCc3ccccc3)=N[C@H]2c2cccc(Cl)c2)c1 [[cis-4,5-bis-(3-Chlorophenyl)-4,5-dihydro-1H-imidazol-2-yl]-benzylamine hydrochloride] the IC50 was 433 nM. With Fc1cccc([C@H]2NC(NCc3ccc(F)c(F)c3)=N[C@H]2c2cccc(F)c2)c1 [[cis-4,5-bis-(3-Fluorophenyl)-4,5-dihydro-1H-imidazol-2-yl]-(3,4-difluorobenzyl)-amine hydrochloride] the IC50 was 71 nM. With Fc1ccc(CNC2=N[C@@H](c3cccc(F)c3)[C@@H](c3cccc(F)c3)N2)cc1 [[cis-4,5-bis-(3-Fluorophenyl)-4,5-dihydro-1H-imidazol-2-yl]-(4-fluorobenzyl)amine hydrochloride] the IC50 was 71 nM. Fc1cccc([C@H]2NC(NCc3ccccc3)=N[C@H]2c2cccc(F)c2)c1 [[cis-4,5-bis-(3-Fluorophenyl)-4,5-dihydro-1H-imidazol-2-yl]-benzylamine hydrochloride] was tested, and the IC50 was 90 nM. In the case of Cc1cccc([C@H]2NC(NCc3ccc(F)c(F)c3)=N[C@H]2c2cccc(C)c2)c1 [[cis-4,5-bis-(3-Methylphenyl)-4,5-dihydro-1H-imidazol-2-yl]-(3,4-difluorobenzyl)-amine hydrochloride], the IC50 is reported as 118 nM. Work on Cc1cccc([C@H]2NC(NCc3cccc(F)c3)=N[C@H]2c2cccc(C)c2)c1 [[cis-4,5-bis-(3-Methylphenyl)-4,5-dihydro-1H-imidazol-2-yl]-(3-fluorobenzyl)amine hydrochloride] yielded an IC50 of 121 nM. In the case of Cc1cccc([C@H]2NC(NCc3ccc(F)cc3)=N[C@H]2c2cccc(C)c2)c1 [[cis-4,5-bis-(3-Methylphenyl)-4,5-dihydro-1H-imidazol-2-yl]-(4-fluorobenzyl)amine hydrochloride], the IC50 is reported as 107 nM. For Cc1cccc([C@H]2NC(NCc3ccccc3)=N[C@H]2c2cccc(C)c2)c1 [[cis-4,5-bis-(3-Methylphenyl)-4,5-dihydro-1H-imidazol-2-yl]-benzylamine hydrochloride], the IC50 was 157 nM. Fc1ccc(CNC2=N[C@@H](c3ccc(Cl)cc3)[C@@H](c3ccc(Cl)cc3)N2)cc1F [[cis-4,5-bis-(4-Chlorophenyl)-4,5-dihydro-1H-imidazol-2-yl]-(3,4-difluorobenzyl)-amine hydrochloride] showed an IC50 of 400 nM. With Clc1ccc([C@H]2NC(NCc3ccccc3)=N[C@H]2c2ccc(Cl)cc2)cc1 [[cis-4,5-bis-(4-Chlorophenyl)-4,5-dihydro-1H-imidazol-2-yl]-benzylamine hydrochloride] the IC50 was 404 nM. Compound Fc1ccc([C@H]2NC(NCc3ccccc3)=N[C@H]2c2ccc(F)cc2)cc1 [[cis-4,5-bis-(4-Fluorophenyl)-4,5-dihydro-1H-imidazol-2-yl]-benzylamine hydrochloride] has an IC50 of 371 nM. For Cc1ccc([C@H]2NC(NCc3ccc(F)c(F)c3)=N[C@H]2c2ccc(C)cc2)cc1 [[cis-4,5-bis-(4-Methylphenyl)-4,5-dihydro-1H-imidazol-2-yl]-(3,4-difluorobenzyl)-amine hydrochloride], the IC50 was 150 nM. Cc1ccc([C@H]2NC(NCc3cccc(F)c3)=N[C@H]2c2ccc(C)cc2)cc1 [[cis-4,5-bis-(4-Methylphenyl)-4,5-dihydro-1H-imidazol-2-yl]-(3-fluorobenzyl)amine hydrochloride] gave an IC50 of 134 nM. Compound Cc1ccc([C@H]2NC(NCc3ccc(F)cc3)=N[C@H]2c2ccc(C)cc2)cc1 [[cis-4,5-bis-(4-Methylphenyl)-4,5-dihydro-1H-imidazol-2-yl]-(4-fluorobenzyl)amine hydrochloride] has an IC50 of 287 nM. Cc1ccc([C@H]2NC(NCc3ccccc3)=N[C@H]2c2ccc(C)cc2)cc1 [[cis-4,5-bis-(4-Methylphenyl)-4,5-dihydro-1H-imidazol-2-yl]-benzylamine hydrochloride] showed an IC50 of 275 nM. Fc1cccc([C@H]2NC(CCc3ccccc3)=N[C@H]2c2cccc(F)c2)c1 [cis-4,5-bis(3-fluorophenyl)-2-(2-phenylethyl)-4,5-dihydro-1H-imidazole] showed an IC50 of 146 nM. In the case of Fc1ccc([C@H]2NC(CCc3ccccc3)=N[C@H]2c2ccc(F)cc2)cc1 [cis-4,5-bis(4-fluorophenyl)-2-(2-phenylethyl)-4,5-dihydro-1H-imidazole], the IC50 is reported as 277 nM. In the case of Fc1ccc(CNC2=N[C@@H](c3ccccc3)[C@@H](c3ccccc3)N2)c(F)c1 [cis-4,5-diphenyl-2-(2,4-difluorobenzyl)amino-4,5-dihydro-1H-imidazole], the IC50 is reported as 289 nM. In the case of Cc1ccccc1CCC1=N[C@H](c2ccccc2)[C@H](c2ccccc2)N1 [cis-4,5-diphenyl-2-(2-(2-methylphenyl)ethyl)-4,5-dihydro-1H-imidazole], the IC50 is reported as 42 nM. Brc1ccccc1CC1=N[C@@H](c2ccccc2)[C@@H](c2ccccc2)N1 [cis-4,5-diphenyl-2-(2-bromobenzyl)-4,5-dihydro-1H-imidazole] was tested, and the IC50 was 321 nM. Brc1ccccc1CNC1=N[C@@H](c2ccccc2)[C@@H](c2ccccc2)N1 [cis-4,5-diphenyl-2-(2-bromobenzyl)amino-4,5-dihydro-1H-imidazole] was tested, and the IC50 was 503 nM. Compound Brc1ccccc1CSC1=N[C@@H](c2ccccc2)[C@@H](c2ccccc2)N1 [cis-4,5-diphenyl-2-(2-bromobenzyl)thio-4,5-dihydro-1H-imidazole] has an IC50 of 521 nM. Fc1ccc(CNC2=N[C@@H](c3ccccc3)[C@@H](c3ccccc3)N2)c(Cl)c1 [cis-4,5-diphenyl-2-(2-chloro-4-fluorobenzyl)amino-4,5-dihydro-1H-imidazole] gave an IC50 of 247 nM. With Clc1ccccc1CC1=N[C@H](c2ccccc2)[C@H](c2ccccc2)N1 [cis-4,5-diphenyl-2-(2-chlorobenzyl)-4,5-dihydro-1H-imidazole] the IC50 was 163 nM and 160 nM. For Clc1ccccc1CNC1=N[C@@H](c2ccccc2)[C@@H](c2ccccc2)N1 [cis-4,5-diphenyl-2-(2-chlorobenzyl)amino-4,5-dihydro-1H-imidazole], the IC50 was 587 nM. With Clc1ccccc1CSC1=N[C@@H](c2ccccc2)[C@@H](c2ccccc2)N1 [cis-4,5-diphenyl-2-(2-chlorobenzyl)thio-4,5-dihydro-1H-imidazole] the IC50 was 630 nM. In the case of Fc1ccccc1CC1=N[C@H](c2ccccc2)[C@H](c2ccccc2)N1 [cis-4,5-diphenyl-2-(2-fluorobenzyl)-4,5-dihydro-1H-imidazole], the IC50 is reported as 577 nM. Fc1ccccc1CNC1=N[C@@H](c2ccccc2)[C@@H](c2ccccc2)N1 [cis-4,5-diphenyl-2-(2-fluorobenzyl)amino-4,5-dihydro-1H-imidazole] was tested, and the IC50 was 409 nM. Fc1ccccc1CSC1=N[C@@H](c2ccccc2)[C@@H](c2ccccc2)N1 [cis-4,5-diphenyl-2-(2-fluorobenzyl)thio-4,5-dihydro-1H-imidazole] was tested, and the IC50 was 819 nM. In the case of Ic1ccccc1CSC1=N[C@@H](c2ccccc2)[C@@H](c2ccccc2)N1 [cis-4,5-diphenyl-2-(2-iodobenzyl)thio-4,5-dihydro-1H-imidazole], the IC50 is reported as 647 nM. COc1ccccc1CNC1=N[C@@H](c2ccccc2)[C@@H](c2ccccc2)N1 [cis-4,5-diphenyl-2-(2-methoxybenzyl)amino-4,5-dihydro-1H-imidazole] gave an IC50 of 409 nM. Cc1ccccc1CNC1=N[C@@H](c2ccccc2)[C@@H](c2ccccc2)N1 [cis-4,5-diphenyl-2-(2-methylbenzyl)amino-4,5-dihydro-1H-imidazole] was tested, and the IC50 was 243 nM. With Cc1ccccc1CSC1=N[C@@H](c2ccccc2)[C@@H](c2ccccc2)N1 [cis-4,5-diphenyl-2-(2-methylbenzyl)thio-4,5-dihydro-1H-imidazole] the IC50 was 449 nM.
